Experimental data taken from US11821892B2, “Nanobubbles” (Purdue Research Foundation, priority 2014, dated 2023).

Key:
[1] = system: MB49 bladder tumor; details: MMC 1 μg/mL; ONB-MMC 0.5 μg/mL MMC and 2 mg/mL ONB; intravesical
Source text: (§3) Female C57BL/6 mice were anesthetized by 1-2% isoflurane gas inhalation at 2 L/min. Electrocauterization technique was used to create a minor injury on the wall of the bladder for MB49 cells to adhere to. A 24 gauge Teflon catheter (Terumo Surflo PTFE I.V. Catheters, Fisher Scientific) was inserted into the bladder through the urethra. Minor pressure was applied onto the bladder area to release the urine from the bladder. A wire, connected to the electrocautery unit was then instilled into the bladder through the catheter. 1×10^4 MB49 cells were then instilled into the bladder; dwelling time was approximately 20 minutes to allow the cells to adhere to the injured bladder wall.
(§4) After the bubbles were injected intravesically, a pulsed wave Doppler beam was applied for five minutes and B-mode images were recorded.
(§5) The mice were imaged 48 hours after the instillation of the tumors and treatment was administered every other day based on previously established protocols.
(§6) 3D images of bladder tumor were taken every other day using the Vevo 2100 ultrasound imaging system (Fujifilm VisualSonics Inc., Toronto CA). Vevo Lab software was used to manually segment given 3D images in 2D slices, with step sizes that can be as small as 10 μm. Segmentation of a 3D image allowed accurate volume measurements to be taken from each 3D image. […]

[2] = system: VEGF; assay: Immunohistochemistry of mouse bladder tumors, VEGF; type: in vivo; details: ex vivo mouse bladder tumor, compared to control
Experimental: (§1) Histology slides were prepared and immunohistochemistry was performed at Immunohistochemistry Laboratory at IU Health Pathology. Harvested organ tissue and bladder tumors were fixed in formalin-free IHC Zinc Fixative, embedded in paraffin, and sectioned into 5 μm slices. HIF-1 and VEGF immunohistochemistry was performed using buffered zinc formalin fixed tumor section. Blocking, antigen retrieval, and primary and secondary antibody staining were performed […]. The tissue sections were imaged using Leica DMi1 inverted microscope, and image processing was performed using ImageJ software (Research Services, National Institute of Health). Each tissue section was imaged under ×20 and ×40 magnification, composite images were converted to RGB stacks and integrated density of staining was calculated.
(§2) Angiogenesis and high density of blood vessels has been correlated with poor prognosis, metastasis, and bladder cancer invasion in clinical studies.

[3] = system: HIF-1; assay: Immunohistochemistry of mouse bladder tumors, HIF-1; type: in vivo; details: ex vivo mouse bladder tumor, compared to control
Experimental: as §1, §2

[4] = system: MB49 bladder tumor; assay: Intravesical treatment with ultrasound beam steering in orthotopic MB49 bladder cancer mouse model; details: in vivo
Source text: as §3, §4, §5, §6

[5] = system: MB49 cells; assay: In vitro beam steering factorial design, MB49 cell viability; type: cell-based, mouse

## CO[C@@]12[C@H](COC(N)=O)C3=C(C(=O)C(C)=C(N)C3=O)N1C[C@@H]1N[C@@H]12 [MMC, mitomycin-C]
[1]
  tumor volume compared to CTRL: significant in reducing the tumor volume
[2]
  VEGF expression (IHC): significantly lower
[3]
  HIF-1 expression (IHC): significantly lower
[4]
  average mouse body weights compared to ONB-MMC groups: significantly lower
[5]; MMC 0.05-5 μg/mL, ONB 0.2-20 mg/mL
  effect on MB49 cell viability (factorial design): significant in decreasing cell viability
[5]; beam ON/OFF, MMC 0.5 μg/mL and ONB 2 mg/mL at medium concentration
  effect of ultrasound beam steering on cell viability: No significant effect
